Here are results for one molecule from US10696686B2, “Herbicidally active (alkynyl-phenyl)-substituted cyclic dione compounds and derivatives thereof” (Syngenta Limited, priority 2013, dated 2020).

What all share (assay): Biological Example 3 glasshouse assay using various adjuvant systems, post-emergence foliar spray
What all share (type): in vivo

The subject of test [1] is Brachiaria decumbens (BRADC). To be noted: 8 g/ha, 14 DAA (A11: 14 or 15 DAA), adjuvant 0.5% v/v Adigor + 1.0% v/v AMS + 12.5% v/v IPA. On the procedure: (§1) Post-emergence foliar spray application, 200 L/ha, usually one or two replicates for the weeds (depending on application rate), and two replicates for soybean.
(§2) Standard warm conditions (tropical), in glasshouse. Specifically, the glasshouse bay conditions are 24° C./18° C. day/night; 16/8 hours light/dark; 65% humidity.
(§3) The herbicidal application takes place at the following growth stages for plants which include inter alia one or more of the following plants (usually the herbicidal application takes place on at least the following plants: DIGSA, ELEIN, SETFA, ZEAMX, GLXMA Nikko, and GLXMA TMG133, and often also either BRADC or BRAPP):
Brachiaria decumbens (BRADC)—growth stage (GS) 12 or 13 (or GS 12)—or, if BRADC is not used, then usually Brachiaria platyphylla (BRAPP)—growth stage 12 or 13
(§4) Each test compound is applied with one of the following adjuvant systems (all percentages are final concentrations in the aqueous spray mixture):
(§5) Adjuvant system 1: 0.5% v/v Adigor™ *, 1.0% v/v AMS (ammonium sulphate) and 12.5% v/v IPA (isopropyl alcohol).
(§6) Adjuvant system 1A: 0.5% v/v Adigor™ * and 12.5% v/v IPA (isopropyl alcohol).
(§7) CAS Registry no. 166412-78-8), and is usually available from BASF. “Isononyl” in this context is thought to mean a mixture of two or more branched isomers of C9H19. […] A visual assessment of the % herbicidal damage is made 7 and 14 Days After herbicide Application (DAA) (or, in a minority of cases, 7 and 15 DAA), and the results are recorded as % visual herbicidal damage where 0%=no damage to plants and 100%=plant totally killed. *** Adjuvant system=either Adigor™ or Hexamoll DINCH™ or tris-(2-ethylhexyl) phosphate each at 0.5% v/v, and 12.5% v/v IPA (isopropyl alcohol), and 1.0% v/v AMS (ammonium sulphate); or 0.5% v/v Adigor™ and 12.5% v/v IPA (isopropyl alcohol); all percentages are final concentrations in the aqueous spray mixture. […]

Test [2] relates to Setaria faberi (SETFA). To be noted: 8 g/ha, 14 DAA (A11: 14 or 15 DAA), adjuvant 0.5% v/v Adigor + 1.0% v/v AMS + 12.5% v/v IPA. Here is the method: as §1, §2, §3
Setaria faberi (SETFA)—growth stage 12 or 13
as §4, §5, §6
(§8) CAS Registry no. […] A visual assessment of the % herbicidal damage is made 7 and 14 Days After herbicide Application (DAA) (or, in a minority of cases, 7 and 15 DAA), and the results are recorded as % visual herbicidal damage where 0%=no damage to plants and 100%=plant totally killed. *** Adjuvant system=either Adigor™ or Hexamoll DINCH™ or tris-(2-ethylhexyl) phosphate each at 0.5% v/v, and 12.5% v/v IPA (isopropyl alcohol), and 1.0% v/v AMS (ammonium sulphate); or 0.5% v/v Adigor™ and 12.5% v/v IPA (isopropyl alcohol); all percentages are final concentrations in the aqueous spray mixture. […]
(§9) The percentages of herbicidal damage/plant control, at 14 Days After herbicide Application (DAA) (or, in a minority of cases, at 15 DAA), for the Compounds tested and for some of the plants tested, were in the following percentage ranges. […] Phytotoxicity on Glycine max (GLXMA, Soybean) Cultivar “TMG133” Glycine max (GLXMA, soybean) cultivar “TMG133” is Roundup Ready™ glyphosate-tolerant soybean cultivar TMG133, and is typically available from Monsanto in Brazil.

In test [3] the test system is Glycine max (GLXMA, soybean) cultivar TMG133. To be noted: 14 DAA (A11: 14 or 15 DAA), adjuvant 0.5% v/v Adigor + 1.0% v/v AMS + 12.5% v/v IPA. Here is the method: as §1, §2, §3
Glycine max (GLXMA, soybean) cultivar “TMG133”—which is Roundup Ready™ glyphosate-tolerant soybean cultivar TMG133 (typically available from Monsanto in Brazil)—growth stage: 1st trifoliate.
as §4, §5, §6
(§10) CAS Registry no. 166412-78-8), and is usually available from BASF. “Isononyl” in this context is thought to mean a mixture of two or more branched isomers of C9H19. Method: Seeds of the weed (including volunteer) plants, typically including inter alia Digitaria sanguinalis (DIGSA), Eleusine indica (ELEIN), Setaria faberi (SETFA), Zea mays (ZEAMX, corn), and sometimes also [either Brachiaria decumbens (BRADC) or Brachiaria platyphylla (BRAPP)], are sown in seed trays (troughs) containing clay loam soil (pH 7.0, 2.2% organic matter, “Trough Mix A”); and soybean seed is sown in pots containing the same soil with 3 soybean seedlings per pot. The plants are sprayed with the test herbicide when they reach the growth stages mentioned above. The test herbicidal solutions are prepared by mixing the appropriate aliquots of the test substance(s) and one of the adjuvant systems indicated above *** in deionised water to give the desired treatment concentration. The herbicidal application is made as a foliar spray, using a tracksprayer. Following the herbicidal application, the plants are watered twice per day for the duration of the test. A visual assessment of the % herbicidal damage is made 7 and 14 Days After herbicide Application (DAA) (or, in a minority of cases, 7 and 15 DAA), and the results are recorded as % visual herbicidal damage where 0%=no damage to plants and 100%=plant totally killed. *** Adjuvant system=either Adigor™ or Hexamoll DINCH™ or tris-(2-ethylhexyl) phosphate each at 0.5% v/v, and 12.5% v/v IPA (isopropyl alcohol), and 1.0% v/v AMS (ammonium sulphate); or 0.5% v/v Adigor™ and 12.5% v/v IPA (isopropyl alcohol); all percentages are final concentrations in the aqueous spray mixture.
(§11) Compounds A8, A11 and A17, which are compounds of formula (I) according to the present invention, were tested in a test method substantially as described above.
(§12) Compound A8 was tested using the 0.5% v/v Adigor™+12.5% v/v IPA adjuvant system. Compounds A11 and A17 were tested using the 0.5% v/v Adigor™+1.0% v/v AMS+12.5% v/v IPA adjuvant system.
The percentages of herbicidal damage/plant control, at 14 Days After herbicide Application (DAA) (or, in a minority of cases, at 15 DAA), for the Compounds tested and for some of the plants tested, were in the following percentage ranges. […]

The subject of test [4] is Glycine max (GLXMA, soybean) cultivar Nikko. The settings on record: post-emergence, 14 DAA (A11: 14 or 15 DAA), adjuvant 0.5% v/v Adigor + 1.0% v/v AMS + 12.5% v/v IPA. Here is the method:
as §1, §2, §3
Glycine max (GLXMA, soybean) cultivar “Nikko”—growth stage: 1st trifoliate
as §4, §5, §6, §10, §11, §12
The percentages of herbicidal damage/plant control, at 14 Days After herbicide Application (DAA) (or, in a minority of cases, at 15 DAA), for the Compounds tested and for some of the plants tested, were in the following percentage ranges. At least for Compounds A8 and A17, the phytotoxicity results shown herein are the average of 2 repetitions (for the grassy weeds, corn and soybean). […] Control of Zea mays (ZEAMX, Corn), a Warm-Climate (Warm-Season) Grassy Plant Zea mays (ZEAMX, maize, corn) is often present as a “volunteer” weed (“volunteer” corn) in fields where it was planted as a crop in preceding growing season(s) and where the present field crop is not corn. […]

The subject of test [5] is Eleusine indica (ELEIN). The settings on record: 8 g/ha, 14 DAA (A11: 14 or 15 DAA), adjuvant 0.5% v/v Adigor + 1.0% v/v AMS + 12.5% v/v IPA. Here is the method: as §1, §2, §3
Eleusine indica (ELEIN)—growth stage 12 or 13
as §4, §5, §6, §8, §9

Test [6] concerns Digitaria sanguinalis (DIGSA). To be noted: 8 g/ha, 14 DAA (A11: 14 or 15 DAA), adjuvant 0.5% v/v Adigor + 1.0% v/v AMS + 12.5% v/v IPA. On the procedure:
as §1, §2, §3
Digitaria sanguinalis (DIGSA)—growth stage 12 or 13
as §4, §5, §6, §8
The percentages of herbicidal damage/plant control, at 14 Days After herbicide Application (DAA) (or, in a minority of cases, at 15 DAA), for the Compounds tested and for some of the plants tested, were in the following percentage ranges. […] Phytotoxicity on Glycine max (GLXMA, Soybean) Cultivar “TMG133” Glycine max (GLXMA, soybean) cultivar “TMG133” is Roundup Ready™ glyphosate-tolerant soybean cultivar TMG133, and is typically available from Monsanto in Brazil. […]

Test [7] concerns Zea mays (ZEAMX, maize, corn) cultivar Garland. The settings on record: 8 g/ha, 14 DAA (A11: 14 or 15 DAA), adjuvant 0.5% v/v Adigor + 1.0% v/v AMS + 12.5% v/v IPA. On the procedure: as §1, §2, §3
Zea mays (ZEAMX, maize/corn, e.g. can occur as volunteer corn) cultivar “Garland”—growth stage 12 or 13
as §4, §5, §6, §7

Regarding `CC#Cc1cc(F)c(C2C(=O)CCCC2=O)c(OC)c1` [Compound A17], the “percentage control of (phytotoxicity on) Brachiaria decumbens (BRADC)” value in test [1] stood at 0%. For the same molecule, the “percentage control of Setaria faberi (SETFA)” value in test [2] was 0%. The “percentage phytotoxicity on Glycine max (GLXMA, soybean) cultivar TMG133” value in test [3] (120 g/ha) was 5%; in test [3] (240 g/ha), 7.5%. Also, the figures for the “percentage phytotoxicity on Glycine max (GLXMA, soybean) cultivar Nikko” value in test [4] (120 g/ha) and in test [4] (240 g/ha) were 5% and 7.5%, respectively. The “percentage control of Eleusine indica (ELEIN)” value in test [5] amounted to 0%. The “percentage control of Digitaria sanguinalis (DIGSA)” value in test [6] is reported as 0%. Besides, the “percentage control of Zea mays (ZEAMX, maize, corn)” value in test [7] came out at 0%.
